Molecular target: T1, arylamine-N-acetyltransferase (TBNAT) (Mycobacterium tuberculosis, UniProt P9WJI5)
T1 construct: gene nat
T1 sequence (P9WJI5 1-283): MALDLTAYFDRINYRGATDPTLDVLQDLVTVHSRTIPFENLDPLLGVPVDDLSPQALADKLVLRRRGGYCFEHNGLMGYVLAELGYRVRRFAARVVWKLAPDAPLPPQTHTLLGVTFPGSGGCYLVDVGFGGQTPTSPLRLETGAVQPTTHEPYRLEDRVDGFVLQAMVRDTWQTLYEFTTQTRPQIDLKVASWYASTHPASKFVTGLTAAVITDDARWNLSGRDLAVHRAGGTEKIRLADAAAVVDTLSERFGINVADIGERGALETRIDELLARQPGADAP
Assay: biochemical

Row | Structure (SMILES) | IC50 [µM]
1 | CC(=O)O[C@H]1CC(C)(C)C(=C=C/C(C)=C/C=C/C(C)=C/C=C/C=C(C)/C=C/C=C(\C)C(=O)C[C@@]23O[C@]2(C)C[C@@H](O)CC3(C)C)[C@](C)(O)C1 [fucoxanthin] | 4.8 ± 0.4
2 | NNC(=O)c1ccncc1 [isoniazid] | 5.9 ± 0.2

— article PMC6891772 (Marine Drugs, 2019)
